Reference: ChEMBL document CHEMBL3885881, “DrugMatrix”

Organism: Rattus norvegicus
Test: DrugMatrix - Regimen: Daily Repeat
Format: toxicity, organism-based, Sprague-Dawley
Design: regimen Daily Repeat, gender Male, age 6-8 weeks
Details: in vivo, po, route oral GAVAGE, […]; for ABSOLUTE BASOPHIL / ABSOLUTE EOSINOPHIL / ABSOLUTE LYMPHOCYTE / ABSOLUTE MONOCYTE / ABSOLUTE SEGMENTED NEUTROPHIL / BASOPHIL / EOSINOPHIL / ERYTHROCYTE COUNT / HEMATOCRIT / HEMOGLOBIN / LEUKOCYTE COUNT / LYMPHOCYTE / MEAN CORPUSCULAR HEMOGLOBIN / MEAN CORPUSCULAR HEMOGLOBIN CONCENTRATION / MEAN CORPUSCULAR VOLUME / MONOCYTE / NEUTROPHIL / NUCLEATED RED BLOOD CELLS / PLATELET COUNT: tissue Blood; for ALANINE AMINOTRANSFERASE / ALBUMIN / ALKALINE PHOSPHATASE / ASPARTATE AMINOTRANSFERASE / BLOOD UREA NITROGEN / CARBON DIOXIDE / CHLORIDE / CHOLESTEROL / CREATINE PHOSPHOKINASE / CREATININE / GLUCOSE / LACTATE DEHYDROGENASE / LIPASE / PHOSPHORUS / POTASSIUM / SODIUM / TOTAL BILIRUBIN / TOTAL PROTEIN / URIC ACID: tissue Plasma
[1] = 11 mg/kg, 120 h, dose level High, time 5 day
[2] = 72 h, dose 0.26 mg/Kg, dose level Low, time 3 day
[3] = 120 h, dose 0.26 mg/Kg, dose level Low, time 5 day

## C[C@H]1O[C@@H](O[C@H]2[C@@H](O)C[C@H](O[C@H]3[C@@H](O)C[C@H](O[C@H]4CC[C@@]5(C)[C@H](CC[C@@H]6[C@@H]5C[C@@H](O)[C@]5(C)[C@@H](C7=CC(=O)OC7)CC[C@]65O)C4)O[C@@H]3C)O[C@@H]2C)C[C@H](O)[C@@H]1O [DIGOXIN]
[1]
  ABSOLUTE BASOPHIL: 0 CELLS/uL
  ABSOLUTE EOSINOPHIL: 21.33 CELLS/uL
  ABSOLUTE LYMPHOCYTE: 5911 CELLS/uL
  ABSOLUTE MONOCYTE: 0 CELLS/uL
  ABSOLUTE SEGMENTED NEUTROPHIL: 367.67 CELLS/uL
  BASOPHIL: 0%
  EOSINOPHIL: 0.33%
  ERYTHROCYTE COUNT: 6.17 x10E6/uL
  HEMATOCRIT: 38.03%
  HEMOGLOBIN: 15.03 G/DL
  LEUKOCYTE COUNT: 6.3 x10E3/uL
  LYMPHOCYTE: 94.33%
  MEAN CORPUSCULAR HEMOGLOBIN: 24.37 pg
  MEAN CORPUSCULAR HEMOGLOBIN CONCENTRATION: 39.53 G/DL
  MEAN CORPUSCULAR VOLUME: 61.63 fL
  MONOCYTE: 0%
  NEUTROPHIL: 5.33%
  NUCLEATED RED BLOOD CELLS: 0 /100WBC
  PLATELET COUNT: 1098 x10E3/uL
  ALANINE AMINOTRANSFERASE: 90 u/L
  ALBUMIN: 4.37 G/DL
  ALKALINE PHOSPHATASE: 342 u/L
  ASPARTATE AMINOTRANSFERASE: 79.67 u/L
  BLOOD UREA NITROGEN: 9.33 mg/dL
  CARBON DIOXIDE: 32.67 mmol/L
  CHLORIDE: 95 MEQ/L
  CHOLESTEROL: 90.67 mg/dL
  CREATINE PHOSPHOKINASE: 208.33 u/L
  CREATININE: 0.11 mg/dL
  GLUCOSE: 175.67 mg/dL
  LACTATE DEHYDROGENASE: 92 u/L
  LIPASE: 9.33 u/L
  PHOSPHORUS: 9.27 mg/dL
  POTASSIUM: 4.94 MEQ/L
  SODIUM: 141.5 MEQ/L
  TOTAL BILIRUBIN: 0.17 mg/dL
  TOTAL PROTEIN: 6.23 G/DL
  URIC ACID: 0.5 mg/dL
[2]
  ABSOLUTE BASOPHIL: 0 CELLS/uL
  ABSOLUTE EOSINOPHIL: 80.67 CELLS/uL
  ABSOLUTE LYMPHOCYTE: 8480.33 CELLS/uL
  ABSOLUTE MONOCYTE: 0 CELLS/uL
  ABSOLUTE SEGMENTED NEUTROPHIL: 705.67 CELLS/uL
  BASOPHIL: 0%
  EOSINOPHIL: 0.67%
  ERYTHROCYTE COUNT: 5.56 x10E6/uL
  HEMATOCRIT: 34.27%
  HEMOGLOBIN: 13.27 G/DL
  LEUKOCYTE COUNT: 9.27 x10E3/uL
  LYMPHOCYTE: 91.67%
  MEAN CORPUSCULAR HEMOGLOBIN: 23.83 pg
  MEAN CORPUSCULAR HEMOGLOBIN CONCENTRATION: 38.73 G/DL
  MEAN CORPUSCULAR VOLUME: 61.63 fL
  MONOCYTE: 0%
  NEUTROPHIL: 7.67%
  NUCLEATED RED BLOOD CELLS: 0 /100WBC
  PLATELET COUNT: 1014 x10E3/uL
  ALANINE AMINOTRANSFERASE: 79.33 u/L
  ALBUMIN: 3.97 G/DL
  ALKALINE PHOSPHATASE: 406.67 u/L
  ASPARTATE AMINOTRANSFERASE: 82.67 u/L
  BLOOD UREA NITROGEN: 14.67 mg/dL
  CARBON DIOXIDE: 34 mmol/L
  CHLORIDE: 101.33 MEQ/L
  CHOLESTEROL: 79.33 mg/dL
  CREATINE PHOSPHOKINASE: 157.33 u/L
  CREATININE: 0.12 mg/dL
  GLUCOSE: 161 mg/dL
  LACTATE DEHYDROGENASE: 84 u/L
  LIPASE: 10 u/L
  PHOSPHORUS: 9.57 mg/dL
  POTASSIUM: 6.36 MEQ/L
  SODIUM: 146.27 MEQ/L
  TOTAL BILIRUBIN: 0.27 mg/dL
  TOTAL PROTEIN: 5.63 G/DL
  URIC ACID: 1.2 mg/dL
[3]
  ABSOLUTE BASOPHIL: 0 CELLS/uL
  ABSOLUTE EOSINOPHIL: 0 CELLS/uL
  ABSOLUTE LYMPHOCYTE: 13719.67 CELLS/uL
  ABSOLUTE MONOCYTE: 0 CELLS/uL
  ABSOLUTE SEGMENTED NEUTROPHIL: 1313.67 CELLS/uL
  BASOPHIL: 0%
  EOSINOPHIL: 0%
  ERYTHROCYTE COUNT: 5.8 x10E6/uL
  HEMATOCRIT: 35.03%
  HEMOGLOBIN: 13.67 G/DL
  LEUKOCYTE COUNT: 15.03 x10E3/uL
  LYMPHOCYTE: 90.33%
  MEAN CORPUSCULAR HEMOGLOBIN: 23.57 pg
  MEAN CORPUSCULAR HEMOGLOBIN CONCENTRATION: 39.03 G/DL
  MEAN CORPUSCULAR VOLUME: 60.4 fL
  MONOCYTE: 0%
  NEUTROPHIL: 9.67%
  NUCLEATED RED BLOOD CELLS: 0 /100WBC
  PLATELET COUNT: 1074 x10E3/uL
  ALANINE AMINOTRANSFERASE: 64.67 u/L
  ALBUMIN: 4.03 G/DL
  ALKALINE PHOSPHATASE: 401.33 u/L
  ASPARTATE AMINOTRANSFERASE: 82.67 u/L
  BLOOD UREA NITROGEN: 15.33 mg/dL
  CARBON DIOXIDE: 31.67 mmol/L
  CHLORIDE: 100.33 MEQ/L
  CHOLESTEROL: 58.67 mg/dL
  CREATINE PHOSPHOKINASE: 259 u/L
  CREATININE: 0.14 mg/dL
  GLUCOSE: 148.33 mg/dL
  LACTATE DEHYDROGENASE: 110 u/L
  LIPASE: 9.33 u/L
  PHOSPHORUS: 9.93 mg/dL
  POTASSIUM: 5.45 MEQ/L
  SODIUM: 144.47 MEQ/L
  TOTAL BILIRUBIN: 0.2 mg/dL
  TOTAL PROTEIN: 5.73 G/DL
  URIC ACID: 0.7 mg/dL
